From ChEMBL document CHEMBL5518210 (J Med Chem, 2024)

Key:
Keap1/Nrf2 = Keap1/Nrf2 (Homo sapiens, UniProt Q14145); experiment: Inhibition of His-tagged human Keap1 Kelch domain /FITC-labelled-9mer Nrf2 (unknown origin) protein-protein interaction incubated for 1 hr by fluorescence polarization assay
[1] = Apparent permeability in human Caco-2 cells incubated for 2 hrs by LC/MS analysis
[2] = Metabolic stability in human liver microsomes assessed as compound remaining at 5 uM measured upto 60 mins
in vivo = settings: C57BL/6, mouse, po, 10 mg/kg
Description: Oral bioavailability in C57BL/6 mouse at 10 mg/kg

[3] = target: Voltage-gated inwardly rectifying potassium channel KCNH2 (Homo sapiens, UniProt Q12809); experiment: Inhibition of human ERG by patch clamp assay; assay type: toxicity
Chain of Voltage-gated inwardly rectifying potassium channel KCNH2 (Q12809 whole entry): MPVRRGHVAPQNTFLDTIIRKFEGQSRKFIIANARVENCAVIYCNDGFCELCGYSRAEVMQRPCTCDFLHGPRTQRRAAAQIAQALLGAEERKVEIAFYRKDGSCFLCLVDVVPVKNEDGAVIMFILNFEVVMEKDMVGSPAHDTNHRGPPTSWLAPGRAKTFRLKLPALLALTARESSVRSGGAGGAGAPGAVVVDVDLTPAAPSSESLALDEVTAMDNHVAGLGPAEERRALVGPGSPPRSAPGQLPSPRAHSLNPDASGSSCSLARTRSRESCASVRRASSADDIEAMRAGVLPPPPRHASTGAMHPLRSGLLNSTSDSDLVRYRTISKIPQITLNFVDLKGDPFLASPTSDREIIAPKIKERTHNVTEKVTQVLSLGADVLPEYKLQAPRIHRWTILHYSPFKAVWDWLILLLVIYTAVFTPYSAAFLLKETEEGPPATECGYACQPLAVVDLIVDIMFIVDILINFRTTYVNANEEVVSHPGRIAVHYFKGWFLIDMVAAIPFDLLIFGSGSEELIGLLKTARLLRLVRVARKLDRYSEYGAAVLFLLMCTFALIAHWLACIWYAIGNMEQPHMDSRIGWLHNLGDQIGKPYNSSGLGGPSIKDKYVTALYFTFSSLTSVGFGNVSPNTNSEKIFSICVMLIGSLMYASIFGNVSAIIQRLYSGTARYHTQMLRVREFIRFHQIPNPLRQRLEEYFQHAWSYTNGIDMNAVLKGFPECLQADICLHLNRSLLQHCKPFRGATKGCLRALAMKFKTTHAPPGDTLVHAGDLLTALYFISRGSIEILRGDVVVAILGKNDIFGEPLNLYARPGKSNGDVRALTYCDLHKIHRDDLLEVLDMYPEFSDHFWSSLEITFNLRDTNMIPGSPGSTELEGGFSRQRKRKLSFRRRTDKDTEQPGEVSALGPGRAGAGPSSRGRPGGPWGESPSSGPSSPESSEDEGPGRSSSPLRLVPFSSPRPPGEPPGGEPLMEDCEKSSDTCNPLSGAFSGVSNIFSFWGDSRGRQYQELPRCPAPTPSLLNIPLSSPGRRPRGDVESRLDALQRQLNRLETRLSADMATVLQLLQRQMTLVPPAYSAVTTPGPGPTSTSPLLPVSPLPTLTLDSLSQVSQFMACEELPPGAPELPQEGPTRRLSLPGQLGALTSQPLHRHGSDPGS

Cytochrome P450 3A4 = Cytochrome P450 3A4 (Homo sapiens, UniProt P08684); experiment: Inhibition of CYP3A4 in human liver microsomes; assay type: ADME, Microsome
Chain of Cytochrome P450 3A4 (P08684 whole entry): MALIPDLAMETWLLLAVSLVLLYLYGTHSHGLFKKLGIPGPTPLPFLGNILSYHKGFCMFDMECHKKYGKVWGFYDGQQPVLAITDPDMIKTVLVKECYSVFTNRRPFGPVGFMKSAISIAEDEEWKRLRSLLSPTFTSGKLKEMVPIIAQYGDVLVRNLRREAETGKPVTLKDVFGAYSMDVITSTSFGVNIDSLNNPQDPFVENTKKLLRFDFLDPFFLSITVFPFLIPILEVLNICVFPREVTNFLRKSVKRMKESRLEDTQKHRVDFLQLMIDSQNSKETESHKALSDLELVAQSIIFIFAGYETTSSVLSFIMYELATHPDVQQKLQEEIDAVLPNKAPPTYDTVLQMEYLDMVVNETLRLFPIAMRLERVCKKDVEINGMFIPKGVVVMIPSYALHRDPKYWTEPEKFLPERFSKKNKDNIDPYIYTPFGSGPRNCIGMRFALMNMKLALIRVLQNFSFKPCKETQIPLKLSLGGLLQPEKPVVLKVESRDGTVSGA

Cytochrome P450 1A2 = target: T1, Cytochrome P450 1A2 (Homo sapiens, UniProt P05177); experiment: Inhibition of CYP1A2 in human liver microsomes; assay type: ADME, Microsome
T1 sequence (P05177 whole entry): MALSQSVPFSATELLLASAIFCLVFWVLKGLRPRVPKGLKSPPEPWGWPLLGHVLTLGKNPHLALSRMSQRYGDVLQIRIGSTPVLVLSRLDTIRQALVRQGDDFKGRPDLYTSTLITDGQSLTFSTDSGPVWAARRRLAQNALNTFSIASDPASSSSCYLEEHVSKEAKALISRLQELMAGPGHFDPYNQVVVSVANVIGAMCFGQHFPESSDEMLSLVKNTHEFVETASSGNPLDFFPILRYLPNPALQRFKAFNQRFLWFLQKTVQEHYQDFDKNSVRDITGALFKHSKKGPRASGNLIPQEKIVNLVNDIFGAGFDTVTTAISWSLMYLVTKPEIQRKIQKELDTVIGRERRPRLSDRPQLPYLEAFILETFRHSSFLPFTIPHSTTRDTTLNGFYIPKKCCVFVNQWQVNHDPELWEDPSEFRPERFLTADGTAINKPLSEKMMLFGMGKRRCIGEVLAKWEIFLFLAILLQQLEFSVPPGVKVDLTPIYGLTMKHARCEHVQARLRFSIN

Cytochrome P450 2C8 = target: T2, Cytochrome P450 2C8 (Homo sapiens, UniProt P10632); experiment: Inhibition of CYP2C8 in human liver microsomes; assay type: ADME, Microsome
T2 sequence (P10632 whole entry): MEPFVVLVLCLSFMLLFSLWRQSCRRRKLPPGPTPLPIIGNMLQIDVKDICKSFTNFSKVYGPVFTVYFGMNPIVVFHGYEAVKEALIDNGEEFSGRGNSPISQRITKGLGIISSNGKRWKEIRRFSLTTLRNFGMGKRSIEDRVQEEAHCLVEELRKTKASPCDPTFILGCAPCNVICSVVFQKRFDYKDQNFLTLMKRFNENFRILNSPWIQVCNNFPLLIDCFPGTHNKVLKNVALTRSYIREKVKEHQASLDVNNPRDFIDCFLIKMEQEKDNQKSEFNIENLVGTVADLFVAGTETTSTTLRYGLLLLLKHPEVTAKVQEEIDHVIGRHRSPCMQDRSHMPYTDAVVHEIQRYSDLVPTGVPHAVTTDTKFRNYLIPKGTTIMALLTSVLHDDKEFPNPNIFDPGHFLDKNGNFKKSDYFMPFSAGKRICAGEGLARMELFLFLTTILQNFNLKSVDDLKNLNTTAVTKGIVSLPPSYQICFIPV

Cytochrome P450 2C9 = Cytochrome P450 2C9 (Homo sapiens, UniProt P11712); experiment: Inhibition of CYP2C9 in human liver microsomes; assay type: ADME, Microsome
Chain of Cytochrome P450 2C9 (P11712 whole entry): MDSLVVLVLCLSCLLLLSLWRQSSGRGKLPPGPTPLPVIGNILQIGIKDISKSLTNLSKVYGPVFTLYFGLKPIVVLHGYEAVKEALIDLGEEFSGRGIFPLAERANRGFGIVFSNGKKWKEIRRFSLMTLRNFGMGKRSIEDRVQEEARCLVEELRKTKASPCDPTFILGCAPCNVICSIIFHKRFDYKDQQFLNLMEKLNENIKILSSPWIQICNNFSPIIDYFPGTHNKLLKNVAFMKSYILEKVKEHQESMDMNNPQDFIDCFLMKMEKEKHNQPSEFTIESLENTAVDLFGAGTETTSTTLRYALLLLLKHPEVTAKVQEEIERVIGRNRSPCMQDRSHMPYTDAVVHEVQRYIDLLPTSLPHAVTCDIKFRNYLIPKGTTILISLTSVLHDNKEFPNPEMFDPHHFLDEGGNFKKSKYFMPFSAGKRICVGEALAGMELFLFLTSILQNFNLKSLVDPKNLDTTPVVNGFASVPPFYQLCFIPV

Cytochrome P450 2C19 = Cytochrome P450 2C19 (Homo sapiens, UniProt P33261); experiment: Inhibition of CYP2C19 in human liver microsomes; assay type: ADME, Microsome
Chain of Cytochrome P450 2C19 (P33261 whole entry): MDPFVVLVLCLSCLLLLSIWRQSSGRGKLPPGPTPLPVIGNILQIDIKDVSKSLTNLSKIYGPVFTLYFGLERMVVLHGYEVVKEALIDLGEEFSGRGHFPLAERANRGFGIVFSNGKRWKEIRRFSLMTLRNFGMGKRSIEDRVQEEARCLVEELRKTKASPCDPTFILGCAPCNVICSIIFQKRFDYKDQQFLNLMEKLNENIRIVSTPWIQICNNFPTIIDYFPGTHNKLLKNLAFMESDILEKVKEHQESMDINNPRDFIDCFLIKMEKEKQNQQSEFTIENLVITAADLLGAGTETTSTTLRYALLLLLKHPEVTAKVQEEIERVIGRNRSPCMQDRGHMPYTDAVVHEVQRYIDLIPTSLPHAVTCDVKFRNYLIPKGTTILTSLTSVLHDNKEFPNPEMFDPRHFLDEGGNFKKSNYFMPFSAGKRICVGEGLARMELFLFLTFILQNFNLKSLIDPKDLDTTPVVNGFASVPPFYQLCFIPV

Cytochrome P450 2D6 = Cytochrome P450 2D6 (Homo sapiens, UniProt P10635); experiment: Inhibition of CYP2D6 in human liver microsomes; assay type: ADME, Microsome
Chain of Cytochrome P450 2D6 (P10635 whole entry, the tested form may be a part): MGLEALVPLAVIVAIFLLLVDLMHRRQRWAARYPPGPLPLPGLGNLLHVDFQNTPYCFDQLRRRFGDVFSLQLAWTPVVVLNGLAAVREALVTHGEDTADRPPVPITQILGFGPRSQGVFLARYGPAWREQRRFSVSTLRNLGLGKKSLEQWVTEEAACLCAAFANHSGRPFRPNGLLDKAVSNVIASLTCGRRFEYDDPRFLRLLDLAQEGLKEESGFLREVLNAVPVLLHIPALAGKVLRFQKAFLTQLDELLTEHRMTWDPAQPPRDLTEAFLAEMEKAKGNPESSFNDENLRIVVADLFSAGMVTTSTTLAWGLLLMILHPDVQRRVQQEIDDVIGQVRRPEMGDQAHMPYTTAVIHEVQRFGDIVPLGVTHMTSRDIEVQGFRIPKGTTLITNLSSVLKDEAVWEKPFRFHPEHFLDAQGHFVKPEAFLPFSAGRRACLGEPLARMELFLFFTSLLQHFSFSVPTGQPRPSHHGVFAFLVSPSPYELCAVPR

[4] = target: Kelch-like ECH-associated protein 1 (Homo sapiens, UniProt Q14145); experiment: Binding affinity to biotinylated Keap1 Kelch domain (unknown origin) by SPR method
Chain of Kelch-like ECH-associated protein 1 (Q14145 whole entry, the tested form may be a part): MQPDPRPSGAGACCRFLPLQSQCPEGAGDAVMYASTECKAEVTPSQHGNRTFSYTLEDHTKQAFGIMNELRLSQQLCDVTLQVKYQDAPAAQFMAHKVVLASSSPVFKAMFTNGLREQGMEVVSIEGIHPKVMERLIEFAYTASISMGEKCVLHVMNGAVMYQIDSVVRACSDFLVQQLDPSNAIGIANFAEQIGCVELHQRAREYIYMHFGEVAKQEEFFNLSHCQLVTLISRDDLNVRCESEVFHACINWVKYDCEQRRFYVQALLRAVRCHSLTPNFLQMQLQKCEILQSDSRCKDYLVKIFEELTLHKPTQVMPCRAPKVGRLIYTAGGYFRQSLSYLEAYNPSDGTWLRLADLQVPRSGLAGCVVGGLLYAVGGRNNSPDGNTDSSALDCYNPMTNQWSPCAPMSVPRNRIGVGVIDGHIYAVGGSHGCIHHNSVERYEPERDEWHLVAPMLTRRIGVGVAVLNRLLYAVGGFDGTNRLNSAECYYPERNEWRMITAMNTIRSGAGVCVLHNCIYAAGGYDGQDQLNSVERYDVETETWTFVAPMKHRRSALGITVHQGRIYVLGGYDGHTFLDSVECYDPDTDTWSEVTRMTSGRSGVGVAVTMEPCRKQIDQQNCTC

Chain of Keap1/Nrf2 (Q16236 whole entry, the tested form may be a part): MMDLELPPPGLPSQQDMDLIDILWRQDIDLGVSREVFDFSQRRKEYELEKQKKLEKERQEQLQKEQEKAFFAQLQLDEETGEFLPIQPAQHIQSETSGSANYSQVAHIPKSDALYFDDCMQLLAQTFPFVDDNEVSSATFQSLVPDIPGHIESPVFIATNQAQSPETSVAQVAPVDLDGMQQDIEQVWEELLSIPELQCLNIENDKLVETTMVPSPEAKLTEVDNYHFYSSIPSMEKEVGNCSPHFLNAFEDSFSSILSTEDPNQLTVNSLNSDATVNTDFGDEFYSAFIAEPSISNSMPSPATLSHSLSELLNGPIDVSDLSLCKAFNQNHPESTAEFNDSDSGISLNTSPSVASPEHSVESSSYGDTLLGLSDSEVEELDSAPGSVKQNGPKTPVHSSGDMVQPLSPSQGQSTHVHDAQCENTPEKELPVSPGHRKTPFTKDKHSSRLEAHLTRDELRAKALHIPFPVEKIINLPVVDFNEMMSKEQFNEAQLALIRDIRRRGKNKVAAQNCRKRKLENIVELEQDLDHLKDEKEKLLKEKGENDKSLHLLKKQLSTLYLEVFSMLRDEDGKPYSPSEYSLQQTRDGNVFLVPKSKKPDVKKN
Chain of Keap1/Nrf2 (Q14145 whole entry, the tested form may be a part): as the sequence (Q14145 whole entry, the tested form may be a part) above

SMILES | IC50 (Keap1/Nrf2) | Papp at 2 h [1] | remaining at 1 h, 5 µM [2] | also measured
CCOc1cccnc1Cc1ccc(CC(=O)N[C@H](c2ccc(C)cc2)[C@@H](C)C(=O)O)cc1 | 0.045 µM | 8.9 ×10⁻⁶ cm/s | 84% | –
COc1cccnc1Cc1ccc(CC(=O)N[C@H](c2ccc(C)cc2)[C@@H](C)C(=O)O)cc1.Cl | 0.1 µM | 7.1 ×10⁻⁶ cm/s | 91% | –
Cc1ccc([C@@H](NC(=O)Cc2ccc(Cc3ccccn3)cc2)[C@@H](C)C(=O)O)cc1.Cl | 0.36 µM | 5.7 ×10⁻⁶ cm/s | 94% | –
Cc1ccc([C@@H](NC(=O)Cc2ccc(Cc3ncccc3C)cc2)[C@@H](C)C(=O)O)cc1.Cl | 0.14 µM | 11 ×10⁻⁶ cm/s | 93% | –
CCCOc1cc([C@@H](NC(=O)Cc2ccc(C)cc2)[C@@H](C)C(=O)O)ccc1C | 9.6 µM | 18 ×10⁻⁶ cm/s | 57% | –
Cc1ccc([C@@H](NC(=O)Cc2ccc(Cc3ccccc3)cc2)[C@@H](C)C(=O)O)cc1 | 2 µM | 24 ×10⁻⁶ cm/s | 79% | –
Cc1ccc(CC(=O)N[C@H](c2ccc(C)c(OCC(C)(C)O)c2)[C@@H](C)C(=O)O)cc1 | 4.2 µM | 0.31 ×10⁻⁶ cm/s | 100% | –
Cc1ccc([C@@H](NC(=O)Cc2ccc(CC3CC3)cc2)[C@@H](C)C(=O)O)cc1 | 15 µM | 15 ×10⁻⁶ cm/s | 93% | –
Cc1ccc(CC(=O)N[C@H](c2ccc(C)c(OCC(C)C)c2)[C@@H](C)C(=O)O)cc1 | 3.6 µM | 26 ×10⁻⁶ cm/s | 73% | –
Cc1ccc(CC(=O)N[C@H](c2ccc(C)c(OCC(C)(C)C#N)c2)[C@@H](C)C(=O)O)cc1 | 0.078 µM | 1.4 ×10⁻⁶ cm/s | 43% | –
COc1ccc(S(=O)(=O)Nc2ccc(N(CC(=O)N3CCSC3=O)S(=O)(=O)c3ccc(OC)cc3)c3ccccc23)cc1 | – | – | – | bioavailability (in vivo): 68%
Cc1ccc(CC(=O)N[C@H](c2ccc(C)c(OCC(C)(C)F)c2)[C@@H](C)C(=O)O)cc1 | 0.27 µM | 11 ×10⁻⁶ cm/s | 68% | –
Cc1ccc(CC(=O)N[C@H](c2ccc(C)cc2)[C@@H](C)C(=O)O)cc1 | 20 µM | 8.8 ×10⁻⁶ cm/s | 97% | –
CCOc1cccnc1Cc1ccc([C@H](F)C(=O)N[C@H](c2ccc(C)cc2)[C@@H](C)C(=O)O)cc1 | – | – | – | IC50 [3]: > 30 µM; IC50 (Cytochrome P450 3A4): > 10 µM; IC50 (Cytochrome P450 1A2): > 10 µM; IC50 (Cytochrome P450 2C8): > 10 µM; IC50 (Cytochrome P450 2C9): > 10 µM; IC50 (Cytochrome P450 2C19): > 10 µM; IC50 (Cytochrome P450 2D6): > 10 µM
Cc1ccc([C@@H](NC(=O)Cc2ccc(Cn3cccn3)cc2)[C@@H](C)C(=O)O)cc1 | 0.64 µM | 1.1 ×10⁻⁶ cm/s | 95% | –
Cc1ccc([C@@H](NC(=O)Cc2ccc(Cc3ccc(C)cn3)cc2)[C@@H](C)C(=O)O)cc1.Cl | 0.2 µM | 5.4 ×10⁻⁶ cm/s | 97% | –
Cc1ccc([C@@H](NC(=O)[C@@H](F)c2ccc(Cl)cc2)[C@@H](C)C(=O)O)cc1OCC(C)(C)C#N | – | – | – | IC50 [3]: > 30 µM; IC50 (Cytochrome P450 3A4): > 10 µM; IC50 (Cytochrome P450 1A2): > 10 µM; IC50 (Cytochrome P450 2C8): > 10 µM; IC50 (Cytochrome P450 2C9): 6.2 µM; IC50 (Cytochrome P450 2C19): > 10 µM; IC50 (Cytochrome P450 2D6): > 10 µM
Cc1ccc(CC(=O)N[C@H](c2ccc(C)c(OCc3ccccc3)c2)[C@@H](C)C(=O)O)cc1 | 13 µM | 21 ×10⁻⁶ cm/s | 74% | –
Cc1ccc([C@@H](NC(=O)[C@@H](F)c2ccc3c(c2)CCCC3)[C@@H](C)C(=O)O)cc1 | 0.26 µM | 33 ×10⁻⁶ cm/s | – | Kd [4]: 0.13 µM
Cc1ccc([C@@H](NC(=O)Cc2ccc(Cc3cccc(C)n3)cc2)[C@@H](C)C(=O)O)cc1.Cl | 0.17 µM | 2 ×10⁻⁶ cm/s | 94% | –
Cc1ccc([C@@H](NC(=O)Cc2ccc(CC3CCCCC3)cc2)[C@@H](C)C(=O)O)cc1 | 8.4 µM | 42 ×10⁻⁶ cm/s | 16% | –
Cc1ccc([C@@H](NC(=O)Cc2ccc(Cn3ccccc3=O)cc2)[C@@H](C)C(=O)O)cc1 | 0.92 µM | 0.16 ×10⁻⁶ cm/s | 98% | –
Cc1ccc(CC(=O)N[C@H](c2ccc(C)c(OCC3CCCC3)c2)[C@@H](C)C(=O)O)cc1 | 5 µM | 21 ×10⁻⁶ cm/s | – | –
Cc1ccc(CC(=O)N[C@H](c2ccc(C)c(OCC3(C#N)CC3)c2)[C@@H](C)C(=O)O)cc1 | 0.05 µM | 0.62 ×10⁻⁶ cm/s | 83% | –
Cc1ccc([C@H](F)C(=O)N[C@H](c2ccc(C)c(OCC3(C#N)CC3)c2)[C@@H](C)C(=O)O)cc1 | – | – | – | IC50 [3]: > 30 µM; IC50 (Cytochrome P450 3A4): > 10 µM; IC50 (Cytochrome P450 1A2): > 10 µM; IC50 (Cytochrome P450 2C8): > 10 µM; IC50 (Cytochrome P450 2C9): > 10 µM; IC50 (Cytochrome P450 2C19): > 10 µM; IC50 (Cytochrome P450 2D6): > 10 µM
Cc1ccc(CC(=O)N[C@H](c2ccc(C)c(OCC3CCCCC3)c2)[C@@H](C)C(=O)O)cc1 | 10 µM | 17 ×10⁻⁶ cm/s | – | –
Cc1ccc([C@@H](NC(=O)Cc2ccc(Cl)cc2)[C@@H](C)C(=O)O)cc1OCC(C)(C)C#N | 0.091 µM | 1.2 ×10⁻⁶ cm/s | 90% | –
Cc1ccc([C@@H](NC(=O)Cc2ccc(Cc3cc(C)ccn3)cc2)[C@@H](C)C(=O)O)cc1.Cl | 0.22 µM | 5.4 ×10⁻⁶ cm/s | 92% | –
